From US11712438B2, “Phenyl derivatives as PGE2 receptor modulators” (IDORSIA PHARMACEUTICALS LTD, priority 2017, dated 2023)

Columns and labels:
Assay in all cases: cell-based
EP4 = EP4 (Homo sapiens, UniProt P35408);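 further: inhibition of PGE2-evoked (6 nM) cAMP accumulation in BT549 breast cancer cells endogenously expressing EP4, cAMP read by HTRF competitive immunoassay after 30 min at room temperature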
EP2 = EP2 (Homo sapiens, UniProt P43116);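 further: SF295 glioblastoma cells with endogenous EP2 only, PGE2-stimulated cAMP accumulation read by HTRF competitive immunoassay, 45 min pre-incubation then 30 min at room temperature, IBMX in buffer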
EP2, sequence (P43116 whole entry): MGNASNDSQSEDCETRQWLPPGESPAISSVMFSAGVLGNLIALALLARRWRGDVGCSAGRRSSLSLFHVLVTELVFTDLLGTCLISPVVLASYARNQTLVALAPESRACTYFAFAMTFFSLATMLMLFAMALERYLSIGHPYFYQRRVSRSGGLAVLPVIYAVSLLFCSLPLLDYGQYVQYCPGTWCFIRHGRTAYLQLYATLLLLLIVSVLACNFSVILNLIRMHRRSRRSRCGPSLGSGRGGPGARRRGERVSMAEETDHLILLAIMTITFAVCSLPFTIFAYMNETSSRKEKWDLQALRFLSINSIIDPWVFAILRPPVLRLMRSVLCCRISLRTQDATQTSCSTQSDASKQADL

PTRGER4 (EP4) = PTRGER4 (EP4) (Homo sapiens, UniProt P35408);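 further: assay plate preincubated 15 min at 37 °C, after which PGE2 was added at 20 nM final and incubation continued 120 min at 37 °C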
PTRGER4 (EP4), sequence (P35408 whole entry): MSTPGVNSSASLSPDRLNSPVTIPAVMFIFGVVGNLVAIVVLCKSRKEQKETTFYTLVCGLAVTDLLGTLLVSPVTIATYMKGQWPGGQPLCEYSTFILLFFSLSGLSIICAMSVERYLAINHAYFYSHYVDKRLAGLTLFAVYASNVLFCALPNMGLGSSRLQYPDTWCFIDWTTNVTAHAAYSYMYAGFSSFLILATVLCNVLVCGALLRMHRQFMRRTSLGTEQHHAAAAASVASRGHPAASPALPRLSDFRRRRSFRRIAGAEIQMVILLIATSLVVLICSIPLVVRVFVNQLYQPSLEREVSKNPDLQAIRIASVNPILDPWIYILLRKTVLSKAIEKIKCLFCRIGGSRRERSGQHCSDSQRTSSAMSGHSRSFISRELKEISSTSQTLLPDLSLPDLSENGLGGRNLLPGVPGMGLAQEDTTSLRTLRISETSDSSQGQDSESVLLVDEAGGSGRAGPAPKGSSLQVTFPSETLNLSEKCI
From the text: The assay is using the PathHunter™ HEK 293 PTGER2 and PTGER4 b-arrestin cell lines from DiscoverX. The system is based on the Enzyme Fragment Complementation Technology. Two complementing fragments of the b-galactosidase enzyme are expressed within stably transfected cells. The larger portion of b-gal, termed EA for Enzyme Acceptor, is fused to the C-terminus of b-arrestin 2. The smaller fragment, termed ProLink™ tag, is fused to PTGER2 (EP2) or PTRGER4 (EP4) at the C-terminus. Upon activation, b-arrestin is recruited which forces the interaction of ProLink and EA, allowing complementation of the two fragments of b-gal and the formation of a functional enzyme which is capable of hydrolysing the substrate and generating a chemiluminescent signal.
The HEK 293 PTGER4 b-arrestin cells (DiscoverX 93-030-4C1) are detached from culture dishes with a cell dissociation buffer (Invitrogen, 13151-014), and collected in growing medium (GM: DMEM+Glutamax-I (Invitrogen 32430)/10% FCS, 1% Penicilin/streptomycin). 5000 cells per well of a 384 well plate (white with white bottom Greiner 781080) are seeded in 20 ul per well of GM. Plate is incubated at 37° C., 5% CO2 for 24 hours.
Stock solutions of test compounds are made at a concentration of 10 mM in DMSO, and serially diluted in DMSO to concentrations required for inhibition dose response curves (tested concentration range 10 μM-2 nM or 1 μM-0.2 nM).
PGE2 (Cayman 14010, stock solution: 100 uM in DMSO) is used as agonist at 20 nM final concentration, corresponding to EC80.
Five microliters of diluted compounds are transferred into the assay plate. Plate is pre-incubated 15 minutes at 37° C. Then five microliters of PGE2 (final conc. 20 nM) are transferred into the assay plate. Plate is incubated 120 minutes at 37° C.
Twelve μl of reagent are transferred to the assay plate and incubate for 1 hour at room temperature in the dark. Luminescence counts are read on a BMG Fluostar Optima reader according to manufacturers instructions.
For each compound concentration calculate of the percentage of activity compared to DMSO control value as average±STDEV. (each concentration is measured in duplicate)
When compounds were measured multiple times, mean values are given.

PTGER2 (EP2) = PTGER2 (EP2) (Homo sapiens, UniProt P43116)
PTGER2 (EP2), sequence (P43116 whole entry): as the sequence (P43116 whole entry) above

EP4, sequence (P35408 whole entry): as the sequence (P35408 whole entry) above

In the case of `Cc1ccc(CCNc2cc(-c3cc(C(F)(F)F)c(C(=O)O)s3)ncn2)c(C)c1` [Example 64, 5-{6-[2-(2,4-Dimethyl-phenyl)-ethylamino]-pyrimidin-4-yl}-3-trifluoromethyl-thiophene-2-carboxylic acid], the IC50 (EP4) is reported as 38 nM, the IC50 (EP2) is reported as 244 nM and the IC50 (PTRGER4 (EP4)) is reported as 205 nM. The IC50 (PTGER2 (EP2)) was 316 nM.

For `CCOc1cc(-c2cc(NCCc3cc(Br)ccc3SC)ncn2)sc1-c1noc(=O)[nH]1` [Example 275, 3-(5-{6-[2-(5-Bromo-2-methylsulfanyl-phenyl)-ethylamino]-pyrimidin-4-yl}-3-ethoxy-thiophen-2-yl)-[1,2,4]oxadiazol-5(4H)-one], the IC50 (EP4) was 18 nM, the IC50 (EP2) was 163 nM and the IC50 (PTRGER4 (EP4)) was 90 nM. The IC50 (PTGER2 (EP2)) was 125 nM.

With `CNc1cc(-c2cc(NCCc3c(F)cc(Br)cc3F)ncn2)ccc1C(=O)NCCOC` [Example 277, 4-{6-[2-(4-Bromo-2,6-difluoro-phenyl)-ethylamino]-pyrimidin-4-yl}-N-(2-methoxy-ethyl)-2-methylamino-benzamide] the IC50 (EP4) was 241 nM, the IC50 (EP2) was 221 nM and the IC50 (PTRGER4 (EP4)) was 68 nM. The IC50 (PTGER2 (EP2)) was 74 nM.

For `CCOc1cc(-c2cc(NCCc3c(F)cc(Br)cc3F)ncn2)ccc1-c1cc(O)no1` [Example 273, 5-(4-{6-[2-(4-Bromo-2,6-difluoro-phenyl)-ethylamino]-pyrimidin-4-yl}-2-ethoxy-phenyl)-isoxazol-3-ol], the IC50 (EP4) was 211 nM, the IC50 (EP2) was 364 nM and the IC50 (PTRGER4 (EP4)) was 56 nM. It also gave an IC50 (PTGER2 (EP2)) of 45 nM.

`CCOc1cc(C(F)(F)F)ccc1CCNc1cc(-c2ccc(C(=O)O)c(SC)c2)ncn1` [Example 212, 4-{6-[2-(2-Ethoxy-4-trifluoromethyl-phenyl)-ethylamino]-pyrimidin-4-yl}-2-methylsulfanyl-benzoic acid] gave an IC50 (EP4) of 93 nM, an IC50 (EP2) of 62 nM and an IC50 (PTRGER4 (EP4)) of 50 nM. It also gave an IC50 (PTGER2 (EP2)) of 26 nM.

In the case of `CCOc1cc(-c2cc(NCCc3ccc(Br)cc3)ncn2)sc1CC(=O)O` [Example 17, (5-{6-[2-(4-Bromo-phenyl)-ethylamino]-pyrimidin-4-yl}-3-ethoxy-thiophen-2-yl)-acetic acid], the IC50 (EP4) is reported as 293 nM, the IC50 (EP2) is reported as 189 nM and the IC50 (PTRGER4 (EP4)) is reported as 147 nM. For the same compound, the IC50 (PTGER2 (EP2)) was 202 nM.

In the case of `CCOc1cc(-c2cc(NCCc3cc(F)c(C(F)F)cc3OC)ncn2)sc1C(=O)O` [Example 185, 5-{6-[2-(4-Difluoromethyl-5-fluoro-2-methoxy-phenyl)-ethylamino]-pyrimidin-4-yl}-3-ethoxy-thiophene-2-carboxylic acid], the IC50 (EP4) is reported as 6 nM, the IC50 (EP2) is reported as 41 nM and the IC50 (PTRGER4 (EP4)) is reported as 8 nM. The IC50 (PTGER2 (EP2)) was 51 nM.

Compound `CCOc1cc(-c2cc(NCCc3ccc(OC)cc3F)ncn2)sc1-c1noc(=O)[nH]1` [Example 92, 3-(3-Ethoxy-5-{6-[2-(2-fluoro-4-methoxy-phenyl)-ethylamino]-pyrimidin-4-yl}-thiophen-2yl)-[1,2,4]oxadiazol-5(4H)-one] has an IC50 (EP4) of 4 nM, an IC50 (EP2) of 68 nM and an IC50 (PTRGER4 (EP4)) of 4 nM. For the same compound, the IC50 (PTGER2 (EP2)) was 48 nM.

For `O=C(O)c1ccc(-c2cc(NCCc3c(F)cc(Br)cc3F)ncn2)cc1OC(F)F` [Example 41, 4-{6-[2-(4-Bromo-2,6-difluoro-phenyl)-ethylamino]-pyrimidin-4-yl}-2-difluoromethoxy-benzoic acid], the IC50 (EP4) was 107 nM, the IC50 (EP2) was 20 nM and the IC50 (PTRGER4 (EP4)) was 342 nM. For the same compound, the IC50 (PTGER2 (EP2)) was 92 nM.

Work on `CCOc1cc(-c2cc(NCCc3ccc(Br)c(OC)c3)ncn2)sc1-c1noc(=O)[nH]1` [Example 115, 3-(5-{6-[2-(4-Bromo-3-methoxy-phenyl)-ethylamino]-pyrimidin-4-yl}-3-ethoxy-thiophen-2yl)-[1,2,4]oxadiazol-5(4H)-one] yielded an IC50 (EP4) of 12 nM, an IC50 (EP2) of 51 nM and an IC50 (PTRGER4 (EP4)) of 16 nM. For the same compound, the IC50 (PTGER2 (EP2)) was 44 nM.

Work on `CCOc1cc(-c2cc(NCCc3ccc(Br)cc3F)ncn2)ccc1C(=O)O` [Example 21, 4-{6-[2-(4-Bromo-2-fluoro-phenyl)-ethylamino]-pyrimidin-4-yl}-2-ethoxy-benzoic acid] yielded an IC50 (EP4) of 80 nM, an IC50 (EP2) of 193 nM and an IC50 (PTRGER4 (EP4)) of 779 nM. The IC50 (PTGER2 (EP2)) was 248 nM.

`CCOc1cc(-c2cc(NCCc3cc(C)c(C)cc3OC)ncn2)ccc1C(=O)O` [Example 7, 2-Ethoxy-4-{6-[2-(2-methoxy-4,5-dimethyl-phenyl)-ethylamino]-pyrimidin-4-yl}-benzoic acid] gave an IC50 (EP4) of 140 nM, an IC50 (EP2) of 205 nM and an IC50 (PTRGER4 (EP4)) of 759 nM. The IC50 (PTGER2 (EP2)) was 441 nM.

In the case of `O=C(O)c1ccc2cc(-c3cc(NCCc4c(F)cc(Br)cc4F)ncn3)[nH]c2c1` [Example 169, 2-{6-[2-(4-Bromo-2,6-difluoro-phenyl)-ethylamino]-pyrimidin-4-yl}-1H-indole-6-carboxylic acid], the IC50 (EP4) is reported as 1380 nM, the IC50 (EP2) is reported as 74 nM and the IC50 (PTRGER4 (EP4)) is reported as 457 nM. For the same compound, the IC50 (PTGER2 (EP2)) was 21 nM.

Work on `CCOc1cc(-c2cc(NCCc3c(F)cc(Br)cc3F)ncn2)ccc1C(=O)O` [Example 180, 4-{6-[2-(4-Bromo-2,6-difluoro-phenyl)-ethylamino]-pyrimidin-4-yl}-2-ethoxy-benzoic acid] yielded an IC50 (EP4) of 221 nM, an IC50 (EP2) of 52 nM and an IC50 (PTRGER4 (EP4)) of 674 nM. For the same compound, the IC50 (PTGER2 (EP2)) was 119 nM.

In the case of `CCOc1cc(-c2cc(NCCc3c(F)cccc3F)ncn2)sc1-c1noc(=O)[nH]1` [Example 103, 3-(5-{6-[2-(2,6-Difluoro-phenyl)-ethylamino]-pyrimidin-4-yl}-3-ethoxy-thiophen-2-yl)-[1,2,4]oxadiazol-5(4H)-one], the IC50 (EP4) is reported as 39 nM, the IC50 (EP2) is reported as 39 nM and the IC50 (PTRGER4 (EP4)) is reported as 36 nM. It also gave an IC50 (PTGER2 (EP2)) of 62 nM.

`O=C(O)c1cccc2[nH]c(-c3cc(NCCc4c(F)cc(Br)cc4F)ncn3)cc12` [Example 46, 2-{6-[2-(4-Bromo-2,6-difluoro-phenyl)-ethylamino]-pyrimidin-4-yl}-1H-indole-4-carboxylic acid] showed an IC50 (EP4) of 470 nM, an IC50 (EP2) of 303 nM and an IC50 (PTRGER4 (EP4)) of 148 nM. The IC50 (PTGER2 (EP2)) was 105 nM.

Compound `COc1cc(-c2noc(=O)[nH]2)ccc1-c1cc(NCCc2c(F)cc(Br)cc2F)ncn1` [Example 291, 3-(4-{6-[2-(4-Bromo-2,6-difluoro-phenyl)-ethylamino]-pyrimidin-4-yl}-3-methoxy-phenyl)-[1,2,4]oxadiazol-5(4H)-one] has an IC50 (EP4) of 154 nM, an IC50 (EP2) of 774 nM and an IC50 (PTRGER4 (EP4)) of 77 nM. It also gave an IC50 (PTGER2 (EP2)) of 88 nM.

`COc1cc(SC)ccc1CCNc1cc(-c2ccc(C(=O)O)c(SC)c2)ncn1` [Example 2, 4-{6-[2-(2-Methoxy-4-methylsulfanyl-phenyl)-ethylamino]-pyrimidin-4-yl}-2-methylsulfanyl-benzoic acid] was tested, and the IC50 (EP4) was 112 nM, the IC50 (EP2) was 79 nM and the IC50 (PTRGER4 (EP4)) was 550 nM. The IC50 (PTGER2 (EP2)) was 438 nM.

In the case of `CCOc1cc(-c2cc(NCCc3ccc(Cl)cc3)ncn2)sc1C(=O)O` [Example 82, 5-{6-[2-(4-Chloro-phenyl)-ethylamino]-pyrimidin-4-yl}-3-ethoxy-thiophene-2-carboxylic acid], the IC50 (EP4) is reported as 46 nM, the IC50 (EP2) is reported as 66 nM and the IC50 (PTRGER4 (EP4)) is reported as 103 nM. For the same compound, the IC50 (PTGER2 (EP2)) was 74 nM.

With `CSc1cc(-c2cc(NCCc3ccc(C)c(C)c3)ncn2)ccc1C(=O)O` [Example 18, 4-{6-[2-(3,4-Dimethyl-phenyl)-ethylamino]-pyrimidin-4-yl}-2-methylsulfanyl-benzoic acid] the IC50 (EP4) was 173 nM, the IC50 (EP2) was 130 nM and the IC50 (PTRGER4 (EP4)) was 168 nM. It also gave an IC50 (PTGER2 (EP2)) of 481 nM.

In the case of `CCOc1cc(-c2cc(NCCc3ccc(Br)cc3)ncn2)sc1-c1noc(=O)[nH]1` [Example 130, 3-(5-{6-[2-(4-Bromo-phenyl)-ethylamino]-pyrimidin-4-yl}-3-ethoxy-thiophen-2-yl)-[1,2,4]oxadiazol-5(4H)-one], the IC50 (EP4) is reported as 24 nM, the IC50 (EP2) is reported as 63 nM and the IC50 (PTRGER4 (EP4)) is reported as 4 nM. The IC50 (PTGER2 (EP2)) was 22 nM.

`CC(C)Oc1cc(-c2cc(NCCc3c(F)cc(Br)cc3F)ncn2)sc1-c1noc(=O)[nH]1` [Example 162, 3-(5-{6-[2-(4-Bromo-2,6-difluoro-phenyl)-ethylamino]-pyrimidin-4-yl}-3-isopropoxy-thiophen-2-yl)-[1,2,4]oxadiazol-5(4H)-one] gave an IC50 (EP4) of 5 nM, an IC50 (EP2) of 46 nM and an IC50 (PTRGER4 (EP4)) of 2 nM. The IC50 (PTGER2 (EP2)) was 20 nM.

For `CCNc1cc(-c2cc(NCCc3c(F)cc(Br)cc3F)ncn2)ccc1C(N)=O` [Example 217, 4-{6-[2-(4-Bromo-2,6-difluoro-phenyl)-ethylamino]-pyrimidin-4-yl}-2-ethylamino-benzamide], the IC50 (EP4) was 79 nM, the IC50 (EP2) was 134 nM and the IC50 (PTRGER4 (EP4)) was 29 nM. The IC50 (PTGER2 (EP2)) was 20 nM.

`O=C(O)Cc1sc(-c2cc(NCCc3c(F)cc(Br)cc3F)ncn2)cc1OC(F)F` [Example 315, (5-{6-[2-(4-Bromo-2,6-difluoro-phenyl)-ethylamino]-pyrimidin-4-yl}-3-difluoromethoxy-thiophen-2-yl)-acetic acid] showed an IC50 (EP4) of 28 nM, an IC50 (EP2) of 17 nM and an IC50 (PTRGER4 (EP4)) of 38 nM. The IC50 (PTGER2 (EP2)) was 25 nM.

`CCOc1nc(-c2cc(NCCc3c(F)cc(Br)cc3F)ncn2)sc1C(=O)O` [Example 148, 2-{6-[2-(4-Bromo-2,6-difluoro-phenyl)-ethylamino]-pyrimidin-4-yl}-4-ethoxy-thiazole-5-carboxylic acid] showed an IC50 (EP4) of 8 nM, an IC50 (EP2) of 19 nM and an IC50 (PTRGER4 (EP4)) of 9 nM. For the same compound, the IC50 (PTGER2 (EP2)) was 20 nM.

With `O=C(O)c1cccc2cc(-c3cc(NCCc4c(F)cc(Br)cc4F)ncn3)[nH]c12` [Example 263, 2-{6-[2-(4-Bromo-2,6-difluoro-phenyl)-ethylamino]-pyrimidin-4-yl}-1H-indole-7-carboxylic acid] the IC50 (EP4) was 73 nM, the IC50 (EP2) was 167 nM and the IC50 (PTRGER4 (EP4)) was 73 nM. The IC50 (PTGER2 (EP2)) was 31 nM.

Compound `CCOc1cc(-c2cc(NCCc3c(F)cc(Br)cc3F)ncn2)sc1C(=O)NS(N)(=O)=O` [Example 155, 5-(6-((4-Bromo-2,6-difluorophenethyl)amino)pyrimidin-4-yl)-3-ethoxy-N-sulfamoylthiophene-2-carboxamide] has an IC50 (EP4) of 62 nM, an IC50 (EP2) of 20 nM and an IC50 (PTRGER4 (EP4)) of 35 nM. The IC50 (PTGER2 (EP2)) was 12 nM.

`CCOc1cc(-c2cc(NCCc3c(F)cc(Cl)cc3OC)ncn2)sc1-c1noc(=O)[nH]1` [Example 86, 3-(5-{6-[2-(4-Chloro-2-fluoro-6-methoxy-phenyl)-ethylamino]-pyrimidin-4-yl}-3-ethoxy-thiophen-2yl)-[1,2,4]oxadiazol-5(4H)-one] gave an IC50 (EP4) of 89 nM, an IC50 (EP2) of 84 nM and an IC50 (PTRGER4 (EP4)) of 30 nM. For the same compound, the IC50 (PTGER2 (EP2)) was 16 nM.
